Assay results from patent US20130004966A1, “STRUCTURE OF CYTOKININS AND CYTOKININ RECEPTORS, AND MODULATION OF CYTOKININ SIGNALING” (Salk Institute for Biological Studies (027731), priority 2011, published 2013).

Assays:
[1] = Crystallization of purified AHK4 in the presence of tZr (difference density in ligand binding pocket); assay type: physicochemical; settings: no difference density for the ribose portion of tZr in the crystal complex
Excerpt: Protein Expression and Purification. A synthetic gene comprising the sensor domain of AHK4 (residues 126-395, numbering in accordance with the short splice-variant of AHK4) was codon-optimised for expression in E. coli (Geneart, Regensburg, Germany). The Ncol/Notl digested synthetic fragment was inserted into a modified pET21d (Novagen) plasmid providing N-terminal 7xHis and Strep II affinity tags and expressed as a SUMO fusion protein in E. coli Origami (DE3) cells (Novagen). Cells grown to an OD600nm of 0.8 were induced with 0.3 mM isopropyl-β-D-thiogalactopyranoside in Terrific Broth at 16° C. for 22 h. Cells were collected by centrifugation at 4,500 xg for 30 min, washed in PBS buffer, incubated with 100 mg lysozyme for 1 h at room temperature and snap-frozen in liquid nitrogen. For protein purification cells were thawn in buffer A (25 mM Tris, pH 7.6, 500 mM NaCl, 15 mM Imidazole and, if applicable, 0.1 mM of the respective cytokinin), lysed by sonication, and centrifuged at 75,000 xg for 90 min. The supernatant was incubated in batch with 5 mL HIS-Select Cobalt Affinity Gel (Sigma), washed with buffer A and eluted in buffer A supplemented with 200 mM imidazole. The fusion protein was dialysed against buffer B (25 mM Tris, pH 8.0, 300 mM NaCl, 1 mM EDTA) and then loaded onto a 1 mL Strep-Tactin Superflow high capacity cartridge (IBA, Gottingen, Germany). […]

AHK4 = target: T1, AHK4 (Arabidopsis thaliana, UniProt Q9C5U0); settings: literature result, Romanov et al., J. Exp. Bot. 57:4051-4058 (2006); cited from earlier work
T1 construct: host or cells: E. coli
T1 sequence (Q9C5U0 24-1080 limits assumed): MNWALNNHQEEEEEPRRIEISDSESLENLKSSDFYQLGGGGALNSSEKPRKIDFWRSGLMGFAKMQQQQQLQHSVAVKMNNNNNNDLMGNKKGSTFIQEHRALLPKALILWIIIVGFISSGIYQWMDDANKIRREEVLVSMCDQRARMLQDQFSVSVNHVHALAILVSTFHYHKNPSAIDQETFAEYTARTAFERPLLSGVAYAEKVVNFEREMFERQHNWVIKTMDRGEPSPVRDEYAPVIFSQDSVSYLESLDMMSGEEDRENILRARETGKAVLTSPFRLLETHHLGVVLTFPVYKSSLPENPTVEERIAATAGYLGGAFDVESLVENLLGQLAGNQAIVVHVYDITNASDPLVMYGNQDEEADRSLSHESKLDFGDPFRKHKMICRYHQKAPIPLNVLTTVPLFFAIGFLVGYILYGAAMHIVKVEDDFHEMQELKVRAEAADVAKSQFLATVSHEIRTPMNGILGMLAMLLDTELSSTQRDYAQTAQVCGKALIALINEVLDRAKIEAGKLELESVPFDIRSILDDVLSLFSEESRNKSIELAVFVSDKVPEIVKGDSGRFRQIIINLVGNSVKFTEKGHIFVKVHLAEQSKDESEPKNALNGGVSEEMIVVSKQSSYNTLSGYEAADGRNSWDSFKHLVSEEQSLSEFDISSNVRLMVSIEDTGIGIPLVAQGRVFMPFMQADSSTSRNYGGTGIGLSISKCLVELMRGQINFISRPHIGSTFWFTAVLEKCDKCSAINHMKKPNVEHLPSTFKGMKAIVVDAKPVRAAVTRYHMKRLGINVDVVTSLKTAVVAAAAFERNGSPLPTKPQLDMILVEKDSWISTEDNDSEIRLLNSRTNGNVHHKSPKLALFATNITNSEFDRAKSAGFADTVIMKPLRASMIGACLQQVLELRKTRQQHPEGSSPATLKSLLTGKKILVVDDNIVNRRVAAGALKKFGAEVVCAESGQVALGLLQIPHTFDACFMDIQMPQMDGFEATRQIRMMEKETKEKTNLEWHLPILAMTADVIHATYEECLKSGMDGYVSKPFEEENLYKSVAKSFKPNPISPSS

C/C(=C\CNc1ncnc2c1ncn2[C@@H]1O[C@H](CO)[C@@H](O)[C@H]1O)CO (relative stereo) [tZr, trans-zeatin riboside]
stability of ligand during purification with AHK4 [1]: underwent hydrolysis during purification | binding affinity to AHK4 (AHK4): high affinity
